{"source": "patent US7090995B2", "about": "“Molecules and methods using same for measuring non-transferrin bound iron” (Yissum Research Development Company of the Hebrew …, priority 2000, dated 2006)", "key": {"[1]": {"experiment": "Iron binding (quenching of fluorescence) by fluorescein-transferrin preparations with and without oxalate and gallium", "conditions": "0.6 μM indicator, 10 mM oxalate and gallium, FIGS. 8A-B", "protocol": "FIGS. 8A–B graphically depict the ability of two particular preparations of iron-free-transferrin, essentially Fl-TF (FIG. 8A) and Fl-aTF (FIG. 8B), to detect free iron in the presence and absence of oxalate and Gallium [Ga(III)]. 0.6 μM of each of the indicator molecules were tested under three experimental conditions: with no addition (squares), with 10 mM Na-oxalate (circles) and with 10 mM Na-oxalate and 0.1 mM GaCl3 (triangles), Quenching of fluorescence as a function of iron concentration was measured and presented as % Original Fluorescence.\nPreparation of fluorescein-conjugated apo-Transferrin (Fl-aTF) and iron depleted Transferrin (FL-TF)—100 μM 5-(4,6-dichlorotriazinyl) aminofluorescein (DCTAF, Molecular Probes, Eugene, Oreg.) from a freshly prepared 10 mM solution in dimethylsulfoxide was added to a solution containing 8 mg/ml apo-Transferrin (Kamada, Kibbutz Kama, Israel) (100 μM, based on a, MW of 80 kD) in 100 mM NaHCO3, pH 8.4. Following a 30 minute incubation at 37° C. in the dark, 5 mM L-lysine was added from a solution containing 0.5 M L-lysine, pH 8, in order to terminate the coupling reaction. The product Fl-aTF was extensively dialyzed against HBS, divided into aliquots and stored frozen at −20° C. The final preparation yielded a single fluorescent band of approximately 80 kD in polyacrylamide electrophoresis determinations. The fluoroscein concentration in Fl-aTF was determined to be 84 μM by measuring absorbance at 496 nm, using DCTAF as standard solution, giving a ratio of aTf: fluoroscein of 1:0.84.\nFL-TF was prepared in an identical manner as FL-aTF, with the difference that iron-saturated human transferrin (from Kamada, Kibbutz Kama, Israel) was used instead of iron-free transferrin for reaction with DCTAF. The FL-TF was rendered iron-free by exhaustive dialysis against 37.5 mM Na-Citrate, pH 5.0, and then the citrate was removed from the preparation by exhaustive dialysis against HBS. […]"}, "[2]": {"experiment": "DCI in serum/plasma of Thalassemia patients undergoing oral L1-chelation therapy", "assay_type": "in vivo, human", "conditions": "Thalassemia patients (Thailand, Israel), therapeutic oral doses of L1, minutes to hours after administration; FIGS. 6A-B", "source_text": "FIG. 5 is a schematic illustration of another embodiment of the method of the present invention directed at detecting iron mobilized from tissues into plasma by chelators such as L1 (also called deferriprone). In the example depicted, a serum sample was taken from a patient following L1 oral administration. The iron mobilized in vivo into the plasma by L1 is transferred to Fl-DFO in vitro, whereupon Fl-DFO's fluorescence is quenched commensurately with the amount of iron transferred. The basic assay is as depicted in FIG. 2. FIGS. 6A–B are graphs depicting the DCI levels in plasma of thalassemic patients (3 from Israel and 3 from Thailand, FIGS. 6B and A, respectively) treated with therapeutic doses of L1 (per os). Sampled were retrieved minutes to hours following L1 administration. […] When assessed under actual clinical conditions, with serum samples from Thalassemia patients (each patient is represented by a line in the graph) undergoing L1-chelation therapy in Thailand (FIG. 6A) and Israel (FIG. 6B), the methods of the present invention accurately reflected the L1-bound iron in the patient's plasma. DCI was detected in the samples assayed as described hereinabove (Example 2), and DCI values determined from the standard calibration curve (FIG. 4). […]"}}}
{"compound": "5-4,6-dichlorotriazinyl aminofluorescein (DCTF)-apo-transferrin [Fl-aTF]", "values": [{"measurement": "quenching of fluorescence by iron in the presence of gallium", "setting": "[1]; listed as FL-aTF", "result": "strongly quenched by low concentrations of iron in the presence of gallium"}, {"measurement": "quenching of fluorescence by iron in the presence of gallium", "setting": "[1]; listed as Fl-aTf", "result": "not affected by Gallium"}]}
{"compound": "Cc1c(O)c(=O)ccn1C", "note": "[L1]", "values": [{"measurement": "DCI in patient plasma after L1 administration", "setting": "[2]", "result": "increases in DCI"}]}
{"compound": "Fl-TF: fluorescein attached to iron-saturated human transferrin, then rendered iron-free; similar to conventional fluoresceinated Transferrin", "values": [{"measurement": "quenching of fluorescence by iron in the presence of gallium", "setting": "[1]", "result": "inhibition of Fl-TF fluorescence quenching by gallium was clearly observed"}]}
